Measurements from paper PMC10208956, “Microbial peptides activate tumour-infiltrating lymphocytes in glioblastoma” (Nature, 2023).

How the values were obtained:
TCC88 = experiment: Cytokine and chemokine secretion of TCC88 after peptide stimulation; assay type: cell-based, human; conditions: TCC88 supernatant after peptide stimulation; no peptide control subtracted; Fig. 3e
Text: (§1) Fig. 3 Bacteria-derived and microbiota-derived peptides can stimulate TCC88 as well as the tumour antigen. a, Peptides with the highest predicted stimulatory scores were identified by searching various databases (see Methods). Numbers of unique 10-mer peptides within each database, synthesized peptides, TCC88 stimulatory peptides and the corresponding percentage of stimulatory peptides within each database are shown. […] Cytokine and chemokine secretion of TCC88 was examined and compared upon stimulation with these three different antigens. A specific amount of each cytokine and chemokine (pg ml^−1) was calculated by subtracting the cytokines in the negative control cultures (no peptide control). f, Cytotoxicity of TCC88 against the autologous tumour cell line after stimulation with 2 µM of SIN3A* and HGM3 (data represent the mean percentage of two replicate wells). E:T, effector to target. g, TCC88 was tested with HGM3 (10 µM) or SIN3A* (10 µM) peptides or both together (each 10 µM), and ^3H-thymidine incorporation was measured after 3 days (data represent the mean SI value of three replicate wells ± s.e.m.). Also see Extended Data Figs. 3 and 4. Source data
Supernatants from each experiment were harvested a day before adding thymidine and frozen at −20 °C. Cytokines were measured using ELISA for human IFNγ ELISA MAX (BioLegend), human GM-CSF DuoSet ELISA (R&D Systems) and bead-based assays. A Synergy H1 hybrid multi-mode reader (Agilent) was used to measure the absorbance. The LEGENDplex Multi-analyte Flow Assay kit (BioLegend) is a 13-plex human TH cytokine panel, which includes IFNγ, TNF, IL-2, IL-4, IL-5, IL-6, IL-9, IL-10, IL-13, IL-17A, IL-17F, IL-21 and IL-22. […] LSR Fortessa Flow Cytometer (BD Biosciences) was used to measure cytokines, and data were analysed using FlowJo (Tree Star). The Human XL Cytokine Luminex Performance Assay Fixed Panel (R&D Systems) contains 45 analytes covering a broad range of various chemokines and cytokines.

[1] = test system: autologous glioblastoma cells; experiment: T cell cytotoxicity assay of TCC88 against the autologous tumour cell line; assay type: cell-based, human; conditions: TCC88 stimulated with 2 µM peptide for 72 h; E:T 1:1 and 5:1; 24 h; duplicates; Fig. 3f
Text: as §1, with “Source data […]” for “Source data”

## Ac-QPVEFNHAIHYVN-NH2 [SIN3A*]
TCC88
  CCL20/MIP-3α: 15.37 pg/mL
  CD40 Ligand: 2926.92 pg/mL
  CXCL1/GROα: 71.75 pg/mL
  CXCL2/GROβ: 125.05 pg/mL
  CXCL8/IL-8: 0 pg/mL
  CXCL10/IP-10: 22.77 pg/mL
  Flt-3 Ligand: 138.99 pg/mL
  Fractalkine: 649.3 pg/mL
  GM-CSF: 12306.4 pg/mL
  Granzyme B: 3726.29 pg/mL
  IFN-α: 6.21 pg/mL
  IFN-γ: 2158.92 pg/mL
  IL-1rα: 2936.96 pg/mL
  IL-1α: 18.71 pg/mL
  IL-1β: 19.49 pg/mL
  IL-2: 1202.18 pg/mL
  IL-3: 486.43 pg/mL
  IL-4: 244.81 pg/mL
  IL-5: 13.04 pg/mL
  IL-6: 272.8 pg/mL
  IL-7: 2.58 pg/mL
  IL-10: 469.8 pg/mL
  IL-12p70: 34.04 pg/mL
  IL-13: 1544.08 pg/mL
  IL-15: 2.67 pg/mL
  IL-17A: 3.91 pg/mL
  IL-17E/IL-25: 6.04 pg/mL
  IL-33: 26.68 pg/mL
  TNF-α: 10260.2 pg/mL
[1]
  cytotoxic activity against autologous glioblastoma cells (in words): comparable
